For series [1], the system named is LoVo tumor cells. Briefly: Anti-tumoral efficacy in the colorectal adenocarcinoma xenograft model LoVo. The format is in vivo, NCr nu/nu mice. The protocol:
Study Design: A total of 50 female NCr nu/nu mice (10 per group) at the age of 8-12 weeks were injected with 1×10^7 LoVo tumor cells in 50% Matrigel sc in flank. After seven days they were administered intraperitoneal injections according to the schedule in table 2. Animals were monitored individually. The endpoint of the experiment was a tumor weight of 1000 mm^3 or 75 days, whichever came first. Responders could be followed longer. When the endpoint was reached, the animals were euthanized. Body weight (g) and tumor volume (mm^3) was measured on days 1, 2, 3, 4, 5, 7, 11, 14, 18, 21, 25, 28, 32, 35, 39, 42, 46, 49, 53, 56, 60, 63, 67, 70 and 74.

For series [2] the following is noted: in the body; no source or species given; cited from earlier work.

Turning to `Nc1nc2c(c(=O)[nH]1)N1CN(c3ccc(C(=O)N[C@@H](CCC(=O)O)C(=O)O)cc3)CC1CN2` (stereo partly shown) [methylene-THF, 5,10-methylene tetrahydrofolate], the “Median tumor volume over time (FIG. 2), in words” value in series [1] (LoVo xenograft, days 1-74) is reported as “enhances the anti-tumor growth effect of cetuximab”. For the same molecule, the “Time to endpoint, Kaplan-Meier plot (FIG. 3), in words” value in series [1] (endpoint: tumor weight of 1000 mm^3 or 75 days) is reported as “enhancing the beneficial effect of cetuximab”. The half life entry in series [2] was “approximately 20 min”.
`CN1c2c(nc(N)[nH]c2=O)NCC1CNc1ccc(C(=O)N[C@@H](CCC(=O)O)C(=O)O)cc1` (stereo partly shown) [methyl-THF, 5-methyltetrahydrofolate]: the half life result in series [2] is “approximately 5 hours”.

These data come from patent US9675617B2, “Tetrahydrofolates in combination with EGFR-inhibitors” (ISOFOL MEDICAL AB, priority 2012, dated 2017).
